pEC50: −log10 of the molar value. Activity calls are given as the source filed them. No cut-off for these calls is given here.
Experiments:
[1] = system: Human immunodeficiency virus; experiment: Antiviral activity against HIV 3B assessed as inhibition of infection of NCK45-beta-Gal cells after 48 hrs; format: functional, organism-based; settings: Human immunodeficiency virus 1, 3B
[2] = system: Human immunodeficiency virus; experiment: Antiviral activity against HIV 3B assessed as prevention of early stage infection of NCK45-beta-Gal cells up to 48 hrs; format: functional, organism-based
[3] = Cytotoxicity against human NCK45 cells at 10 uM; format: cell-based; settings: nck45, 10 µM

| pEC50 [1] | SMILES | inhibition [2] | Activity [3] |
| --- | --- | --- | --- |
| 6.52 | N=C1Sc2ccccc2C2=NCCCN12 | Active |  |
| 6.25 | c1cc(-c2ccc3c(c2)SN2CCCN=C32)ccn1 |  | Non-toxic |
| 6.92 | O=[N+]([O-])c1cccc(-c2ccc3c(c2)SN2CCCN=C32)c1 |  | Non-toxic |
| 7.10 | O=[N+]([O-])c1ccc(-c2ccc3c(c2)SN2CCCN=C32)cc1 |  | Non-toxic |
| 6.47 | c1ccc(-c2ccc3c(c2)SN2CCCN=C32)nc1 |  | Non-toxic |
| 6.25 | c1cncc(-c2ccc3c(c2)SN2CCCN=C32)c1 |  | Non-toxic |
| < 5.00 | Brc1cccc2c1SN1CCCN=C21 |  | Non-toxic |
| 6.66 | Brc1ccc2c(c1)SN1CCCN=C21 |  | Non-toxic |
| 7.30 | c1coc(-c2ccc3c(c2)SN2CCCN=C32)c1 | Active | Non-toxic |
| 5.75 | O=[N+]([O-])c1ccc2c(c1)SN1CCCN=C21 |  | Non-toxic |
| 6.52 | c1ccc(-c2ccc3c(c2)SN2CCCN=C32)cc1 |  | Non-toxic |
| 7.30 | COC(=O)c1cccc(-c2ccc3c(c2)SN2CCCN=C32)c1 | Active | Non-toxic |
| < 6.00 | c1ccc2c3c(ccc2c1)C1=NCCCN1S3 |  | Toxic |
| 6.25 | c1ccc(-c2ccc3c(c2)C2=NCCCN2S3)cc1 |  | Non-toxic |
| 6.07 | Cc1ccc2c(c1)C1=NCCCN1S2 |  | Non-toxic |
| 6.39 | c1cnn(-c2ccc3c(c2)SN2CCCN=C32)c1 |  | Non-toxic |

| pEC50 [1] | SMILES | inhibition [2] | Activity [3] |
| --- | --- | --- | --- |
| 6.24 | COc1ccc2c(c1)SN1CCCN=C21 |  | Non-toxic |
| 7.10 | c1cc(-c2ccc3c(c2)SN2CCCN=C32)cs1 |  | Non-toxic |
| 5.75 | FC(F)(F)c1ccc2c(c1)C1=NCCCN1S2 |  | Non-toxic |
| 6.00 | Brc1ccc2c(c1)C1=NCCCN1S2 |  | Non-toxic |
| 5.68 | COc1ccc2c(c1)C1=NCCCN1S2 |  | Non-toxic |
| 5.89 | Oc1ccc(-c2ccc3c(c2)SN2CCCN=C32)cc1 |  | Non-toxic |
| 6.80 | COC(=O)c1ccc(-c2ccc3c(c2)SN2CCCN=C32)cc1 |  | Non-toxic |
| 6.54 | c1ccc2c(c1)SN1CCCN=C21 | Active | Non-toxic |
| 5.83 | Oc1cccc(-c2ccc3c(c2)SN2CCCN=C32)c1 |  | Non-toxic |
| 5.89 | FC(F)(F)c1ccc2c(c1)SN1CCCN=C21 |  | Non-toxic |
| < 5.00 | CC(=O)Nc1ccc2c(c1)SN1CCCN=C21 |  | Non-toxic |
| 6.80 | c1cc2c(cc1-c1ccc3c(c1)SN1CCCN=C31)OCO2 |  | Non-toxic |
| 7.00 | COc1cccc(-c2ccc3c(c2)SN2CCCN=C32)c1 |  | Non-toxic |
| 6.38 | c1cn(-c2ccc3c(c2)SN2CCCN=C32)nn1 |  | Non-toxic |
| 6.92 | c1ccc2cc(-c3ccc4c(c3)SN3CCCN=C43)ccc2c1 |  | Non-toxic |
| 7.05 | COc1ccc(-c2ccc3c(c2)SN2CCCN=C32)cc1 |  | Toxic |

Reference: ChEMBL document CHEMBL3399992, “Identification of anti-HIV agents with a novel benzo[4,5]isothiazolo[2,3-a]pyrimidine scaffold” (Bioorg Med Chem, 2015)
